Measurements from publication PMC12294558, “New 1,2,4-Triazole Derivatives with a N-Mannich Base Structure Based on a 4,6-Dimethylpyridine Scaffold as Anticancer Agents: Design, Synthesis, Biological Evaluation, and Molecular Modeling” (International Journal of Molecular Sciences, 2025).
Marks after values point to notes of the source that are not given here.

Experiments:
[1] = test system: Caco-2 cells; assay: MTT viability assay, colorectal cancer cells Caco-2; assay type: cell-based, human; conditions: for SI, Caco-2: CC50 CCD 841 CoTr / CC50 Caco-2; for CC50: Homo sapiens, Caco-2, MTT, 24 h, read-out: CC50 ± SD, Caco-2
Method: (§1) The cytotoxic effects of ten newly synthesized N-Mannich bases were assessed on the normal human intestinal epithelium (CCD 841 CoTr) and cancer cell lines: gastric cancer (EPG) and four colorectal cancer lines (Caco-2, LoVo, LoVo/Dx, and HT-29). Cell viability was evaluated using the MTT assay in accordance with Annex C of ISO 10993-5 [33].
(§2) The biological activity of the newly synthesized compounds was assessed in the context of anticancer activity. For this purpose, several gastrointestinal cancer lines were selected: gastric cancer (EPG 257, which belongs to the collection of the Laboratory of Cell Culture and Advanced Therapy at the University of Environmental and Life Sciences in Wrocław), and four colorectal cancer cell lines (LoVo, Caco-2, and HT-29) were obtained from the European Collection of Authenticated Cell Cultures (ECACC) and were delivered by Sigma-Aldrich, a certified distributor for the biobank. Additionally, LoVo cells were used to develop a doxorubicin-resistant subline, referred to as LoVo/Dx. Resistance was induced through gradual adaptation to increasing concentrations of doxorubicin, starting from 0.1 µg/mL and incrementally raised to 0.8 µg/mL. After reaching the maximum concentration, the cells were maintained in a medium containing 0.4 µg/mL doxorubicin for a period of three months to stabilize the resistant phenotype. […] The resulting LoVo/Dx subline, resistant to doxorubicin, was cultured in DMEM/F-12 medium and utilized in assays evaluating the effectiveness of novel compounds against multidrug-resistant cancer cells. […] The non-cancerous cell control was normal colonic epithelial cells (CCD 841 CoTr from American Type Culture Collection, (ATCC, Manassas, VA, USA)). Cell cultures were performed under standard conditions (5% CO2, 95% humidity, and 37 °C). Each cell line was cultured in the recommended medium: (1) HT-29 in McCoy’s 5a, (2) Caco-2 in Minimal Essential Medium (MEM, Biological Industries, Beit Haemek, Israel), (3) CCD 841 CoTr in Dulbecco’s Modified Eagle Medium (DMEM, Biological Industries, Beit Haemek, Israel), (4) LoVo in Dulbecco’s Modified Eagle Medium/F-12 (DMEM/F-12; Biological Industries, Beit Haemek, Israel), (5) LoVo/Dx in DMEM/F-12, and (6) EPG in DMEM. Culture media were supplemented with 10% fetal bovine serum (FBS, Sigma-Aldrich, Darmstadt, Germany) and antibiotics (penicillin and streptomycin; Sigma-Aldrich, Darmstadt, Germany). For assays, trypsinized (TrypLE solution, Thermo Fisher Scientific, Waltham, MA, USA) cells were seeded at appropriate densities of 10,000 cells per well for MTT and determination of apoptotic and necrotic cell numbers; 30,000 cells per well for the rhodamine accumulation assay; and 500,000 cells per well for ELISA tests.
(§3) The cytotoxicity of the compounds and drugs used as controls was assessed using the MTT assay. The assay also included a DMSO control. After seeding and allowing the cells to adhere overnight, they were treated with the tested compounds and drugs for another 24 h. After this time, the supernatant was removed, and a 1 mg/mL MTT solution was added for 2 h in 5% CO2, 95% humidity, at 37 °C. The supernatant was then removed, and isopropanol was added to dissolve the purple crystals over 30 min by shaking. Absorbance was measured at 570 nm in a Multiskan GO microplate reader (Thermo Fisher Scientific; Waltham, MA, USA). All reagents used for the assays were purchased from Sigma-Aldrich, Darmstadt, Germany.
(§4) Biological assays were performed in three independent replicates, each involving four samples. ELISA determinations were repeated three times.

[2] = test system: HT-29 cells; assay: MTT viability assay, colorectal cancer cells HT-29; assay type: cell-based, human; conditions: for SI, HT-29: CC50 CCD 841 CoTr / CC50 HT-29; for CC50: Homo sapiens, HT-29, MTT, 24 h, read-out: CC50 ± SD, HT-29
Method: as §1, §2, §3, §4

[3] = test system: LoVo/Dx cells; assay: MTT viability assay, doxorubicin-resistant LoVo/Dx; assay type: cell-based, human; conditions: for SI, LoVo/Dx: CC50 CCD 841 CoTr / CC50 LoVo/Dx; for CC50: Homo sapiens, LoVo/DX, MTT, 24 h, read-out: CC50 ± SD, LoVo/Dx
Method: as §1, §2, §3, §4

[4] = test system: CCD 841 CoTr cells; assay: MTT viability assay, normal colonic epithelial cells; assay type: cell-based, human; conditions: 24 h, Non-toxic = no toxicity in tested range 1–500 μM
Method: as §1, §2, §3, §4

[5] = test system: EPG cells; assay: MTT viability assay, gastric cancer cells; assay type: cell-based, human; conditions: for SI, EPG: CC50 CCD 841 CoTr / CC50 EPG; for CC50: Homo sapiens, MTT, 24 h, read-out: CC50 ± SD, EPG
Method: as §1, §2, §3, §4

[6] = test system: LoVo cells; assay: MTT viability assay, colorectal cancer cells LoVo; assay type: cell-based, human; conditions: for SI, LoVo: CC50 CCD 841 CoTr / CC50 LoVo; for CC50: Homo sapiens, LoVo, MTT, 24 h, Non-toxic = no toxicity in tested range 1–500 μM, read-out: CC50 ± SD, LoVo
Method: as §1, §2, §3, §4

[7] = test system: Caspase-3; assay: Human Caspase-3 (active) ELISA on HT-29 cell lysates; assay type: cell-based; conditions: HT-29, 1 µM, 24 h
Method: (§5) To check the effect of compound 6 on the level of p-53 and caspase-3 protein, another test was performed on HT-29 cells, taking doxorubicin as the reference drug.
(§6) To assess the level of caspase-3 and p53 protein, HT-29 cell lysates were used after 24 h of incubation with compounds 5 and 6. The supernatant was collected in the prepared and labeled tubes, the cells from the wells were scraped, and the wells were washed with cold PBS, which was also collected. The tubes were then centrifuged, the supernatant was removed, and the cell pellet was lysed in a cell extraction vessel for 30 min on ice, with […] every 10 min. The lysate was transferred to centrifuge tubes and centrifuged at 13,000 rpm for 10 min at 4 °C. The supernatant was transferred to clean tubes in a microcentrifuge.
(§7) The following kits were used: Human Caspase-3 (active) ELISA Kit (KHO1091) and p53 Human ELISA Kit (BMS256), used following the manufacturer’s instructions. ELISA kits were purchased from Thermo Fisher Scientific (Waltham, MA, USA). The absorbance was measured using a Multiskan GO microplate reader (Thermo Fisher Scientific, Waltham, MA, USA) at wavelengths specific to each kit, as recommended by the manufacturer.

[8] = test system: p53; assay: p53 Human ELISA on HT-29 cell lysates; assay type: cell-based; conditions: HT-29, 1 µM, 24 h
Method: as §5, §6, §7

[9] = test system: HepG2 cells; set-up: method as in PMID 36181443; conditions: cited from earlier work
[10] = test system: NUGC cell line; set-up: method as in PMID 25948330; conditions: cited from earlier work
[11] = test system: OVCAR-3 cell line; set-up: method as in PMID 33482607; conditions: cited from earlier work

Row | SMILES | SI, Caco-2 [1] | CC50 [1] | SI, HT-29 [2] | CC50 [2] | SI, LoVo/Dx [3] | CC50 [3] | CC50 ± SD, CCD 841 CoTr [4] | SI, EPG [5] | CC50 [5] | SI, LoVo [6] | CC50 [6] | also measured
1 | Cc1cc(C)c(C(=O)NCc2nn(CN3CCN(c4cccc(Cl)c4)CC3)c(=S)n2C)c(S)n1 [Compound 9, 4,6-dimethyl-N-[(4-methyl-5-thioxo-2-{[4-(3-chlorophenyl)piperazinyl]methyl}-4,5-dihydro-1H-1,2,4-triazol-3-yl)methyl]-2-sulfanylpyridine-3-carboxamide] | >>1 ^c | 88.6 ± 7.9 µM | >>1 ^c | 253 ± 5.7 µM | >>1 ^c | 260 ± 4.1 µM | Non-toxic ^b | >>1 ^c | 231 ± 7.1 µM | >>1 ^c | 152 ± 2.7 µM | –
2 | Cc1cc(C)c(C(=O)NCc2nn(CN3CCN(c4ccc([N+](=O)[O-])cc4)CC3)c(=S)n2C)c(S)n1 [Compound 10, 4,6-dimethyl-N-[(4-methyl-5-thioxo-2-{[4-(4-nitrophenyl)piperazinyl]methyl}-4,5-dihydro-1H-1,2,4-triazol-3-yl)methyl]-2-sulfanylpyridine-3-carboxamide] | >>1 ^c | 87.2 ± 5.2 µM | >>1 ^c | 176 ± 6.4 µM | >>1 ^c | 210 ± 3.3 µM | Non-toxic ^b | >>1 ^c | 212 ± 3.7 µM | >>1 ^c | 148 ± 3.7 µM | –
3 | COc1cccc2c1C(=O)c1c(O)c3c(c(O)c1C2=O)C[C@@](O)(C(=O)CO)C[C@@H]3O[C@H]1C[C@H](N)[C@H](O)[C@H](C)O1 [Doxorubicin, doxorubicin] | – | – | – | – | – | – | – | – | – | – | – | Caspase-3 Conc. ± SD [7]: 0.92 ± 0.23 ng/mL; Caspase-3 Fold Change ([7]; versus untreated control): 30.67; p53 Conc. ± SD [8]: 7.62 ± 0.17 U/mL; p53 Fold Change ([8]; versus untreated control): 4.23
4 | Nn1c(Sc2c(O)c3ccccc3oc2=O)nnc1-c1ccncc1 [II] | – | – | – | – | – | – | – | – | – | – | – | IC50 [9]: 1.93 µM
5 | CN1CCN(Cn2nc(-c3ccncc3)n(-c3ccc(Br)cc3)c2=S)CC1 [VIII] | – | – | – | – | – | – | – | – | – | – | – | IC50 [10]: 0.021 µM
6 | O=C(O)c1cn(C2CC2)c2cc(N3CCN(Cc4c(O)ccc5ccccc45)CC3)c(F)cc2c1=O [V] | – | – | – | – | – | – | – | – | – | – | – | IC50 [11]: 0.97 µM
